From patent US11179412B2, “Methods of treating conditions involving elevated inflammatory response” (University of Pittsburgh—Of the Commonwealth System of …, priority 2017, dated 2021)
Where a name gives a salt, the structure may show the parent alone.

System: STING activation (IFNβ release) in iBMDMs
Experiment: IFNβ release ELISA after STING ligand (or LPS) stimulation, iBMDMs
Type: cell-based, mouse
Outline: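 IFNβ released into the medium was quantified by ELISA (mouse or human kit) after iBMDM stimulation with the canonical STING agonist 3′3′-cGAMP or with LPS.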

[1] = iBMDMs, 3′3′-cGAMP 10 μg/ml, 16 hours, compound 10 μM

O=C(Nc1ccncc1)c1cc([N+](=O)[O-])ccc1Cl [T0070907]
fold increase in IFN-β release [1]: 2.09 fold

O=S(=O)(c1ccccc1)N(CC(F)(F)F)c1ccc(C(O)(C(F)(F)F)C(F)(F)F)cc1 [T0901317]
fold increase in IFN-β release [1]: 1.49 fold

CNC(=O)c1ccccc1Nc1nc(Nc2ccc(N3CCOCC3)cc2OC)ncc1Cl [TAE226 (NVP-TAE226)]
fold increase in IFN-β release [1]: 1.50 fold

CNC(=O)c1ccc2cc([C@@]3(O)CCn4cncc43)ccc2c1 [TAK-700 (Orteronel), Orteronel]
fold increase in IFN-β release [1]: 2.72 fold

Cc1cc(OCCCS(C)(=O)=O)cc(C)c1-c1cccc(COc2ccc3c(c2)OC[C@H]3CC(=O)O)c1 [TAK-875]
fold increase in IFN-β release [1]: 1.17 fold

O=C1CC(=O)c2c(Cl)c(Cl)c(Cl)c(Cl)c21 [TCID]
fold increase in IFN-β release [1]: 1.43 fold

COc1ccc(C(=O)Nc2sc3c(c2C(N)=O)CCCC3)cc1OC [TCS 359]
fold increase in IFN-β release [1]: 0.45 fold

Nc1nc(N)c2nc(-c3cccc(O)c3)c(-c3cccc(O)c3)nc2n1 [TG100-115]
fold increase in IFN-β release [1]: 2.65 fold

O=C(NCC1(c2nc(-c3ccccc3)cs2)CCOCC1)c1cccc(-c2noc(C(F)(F)F)n2)c1 [TMP269]
fold increase in IFN-β release [1]: 1.59 fold

NC(=O)Nc1sc(-c2ccc(F)cc2)cc1C(N)=O [TPCA-1]
fold increase in IFN-β release [1]: 2.63 fold

Nc1cccc(-c2cc3c(Oc4cccc(O)c4)ncnc3[nH]2)c1 [TWS119]
fold increase in IFN-β release [1]: 0.35 fold

CN1CC(=O)N2[C@H](c3ccc4c(c3)OCO4)c3[nH]c4ccccc4c3C[C@@H]2C1=O [Tadalafil]
fold increase in IFN-β release [1]: 2.66 fold

COc1cc2c(N3CCN(C(=O)Nc4ccc(OC(C)C)cc4)CC3)ncnc2cc1OCCCN1CCCCC1 [Tandutinib (MLN518), Tandutinib]
fold increase in IFN-β release [1]: 0.65 fold

COc1cc2c(cc1OC)CN(CCc1ccc(NC(=O)c3cc(OC)c(OC)cc3NC(=O)c3cnc4ccccc4c3)cc1)CC2 [Tariquidar]
fold increase in IFN-β release [1]: 0.77 fold

CCCc1nc2c(C)cc(-c3nc4ccccc4n3C)cc2n1Cc1ccc(-c2ccccc2C(=O)O)cc1 [Telmisartan]
fold increase in IFN-β release [1]: 2.26 fold

CO[C@H]1C[C@@H]2CC[C@@H](C)[C@@](O)(O2)C(=O)C(=O)N2CCCC[C@H]2C(=O)O[C@H]([C@H](C)C[C@@H]2CC[C@@H](OC(=O)C(C)(CO)CO)[C@H](OC)C2)CC(=O)[C@H](C)/C=C(\C)[C@@H](O)[C@@H](OC)C(=O)[C@H](C)C[C@H](C)/C=C/C=C/C=C/1C [Temsirolimus (CCI-779, NSC 683864), Temsirolimus]
fold increase in IFN-β release [1]: 0.73 fold

CC(C)OC(=O)OCOP(=O)(CO[C@H](C)Cn1cnc2c(N)ncnc21)OCOC(=O)OC(C)C [Tenofovir Disoproxil Fumarate]
fold increase in IFN-β release [1]: 2.88 fold

CN(C)CCCCC(=O)Nc1ccc(NC(=S)NC(=O)c2ccc(C(C)(C)C)cc2)cc1 [Tenovin-6]
fold increase in IFN-β release [1]: 0.53 fold

O=C(NCc1ccccc1)c1csc(Nc2ccncn2)n1 [Thiazovivin]
3′3′-cGAMP-induced IFNβ release [1]: promoted | fold increase in IFN-β release [1]: 8.11 fold

CCCSc1nc(N[C@@H]2C[C@H]2c2ccc(F)c(F)c2)c2nnn([C@@H]3C[C@H](OCCO)[C@@H](O)[C@H]3O)c2n1 [Ticagrelor]
fold increase in IFN-β release [1]: 1.70 fold

COc1ccc2cc(-c3nc(-c4ccc([S+](C)[O-])cc4)[nH]c3-c3ccncc3)ccc2c1 (stereo not shown) [Tie2 kinase inhibitor]
fold increase in IFN-β release [1]: 2.04 fold

O=c1oc2cc(O)ccc2s1 [Tioxolone]
fold increase in IFN-β release [1]: 1.88 fold

C[C@@H]1CCN(C(=O)CC#N)C[C@@H]1N(C)c1ncnc2[nH]ccc12 [Tofacitinib (CP-690550, Tasocitinib), Tofacitinib]
fold increase in IFN-β release [1]: 1.49 fold

c1ccc(CC2=NCCN2)cc1 [Tolazoline HCl]
fold increase in IFN-β release [1]: 1.46 fold

Cc1c(Cl)cccc1Nc1ccccc1C(=O)O [Tolfenamic Acid]
fold increase in IFN-β release [1]: 2.19 fold

Cc1ccccc1C(=O)Nc1ccc(C(=O)N2CCCC(O)c3cc(Cl)ccc32)c(C)c1 (stereo not shown) [Tolvaptan]
fold increase in IFN-β release [1]: 1.20 fold

CCOC(=O)N1c2ccc(C(F)(F)F)cc2[C@@H](N(Cc2cc(C(F)(F)F)cc(C(F)(F)F)c2)C(=O)OC)C[C@H]1CC [Torcetrapib]
fold increase in IFN-β release [1]: 3.84 fold

CN(C)CCOc1ccc(/C(=C(/CCCl)c2ccccc2)c2ccccc2)cc1 [Toremifene Citrate]
fold increase in IFN-β release [1]: 0.19 fold

Cn1c(=O)cc(N2CCC[C@@H](N)C2)n(Cc2cc(F)ccc2C#N)c1=O [Trelagliptin]
fold increase in IFN-β release [1]: 1.80 fold

Nc1nc(N)c2nc(-c3ccccc3)c(N)nc2n1 [Triamterene]
fold increase in IFN-β release [1]: 0.99 fold

CC(/C=C/C(=O)NO)=C\[C@@H](C)C(=O)c1ccc(N(C)C)cc1 [Trichostatin A (TSA), Trichostatin A]
fold increase in IFN-β release [1]: 0.39 fold

CCC(COC(=O)c1cc(OC)c(OC)c(OC)c1)(c1ccccc1)N(C)C (stereo not shown) [Trimebutine]
fold increase in IFN-β release [1]: 0.30 fold

O=C(O[C@H]1C[C@H]2CC[C@@H](C1)[N+]21CCCC1)C(O)(c1ccccc1)c1ccccc1 [Trospium chloride]
fold increase in IFN-β release [1]: 0.76 fold

O=C(CCCCCCC(=O)Nc1ccc([C@H]2O[C@@H](CSc3nc(-c4ccccc4)c(-c4ccccc4)o3)C[C@@H](c3ccc(CO)cc3)O2)cc1)NO [Tubacin]
fold increase in IFN-β release [1]: 1.05 fold

CC(C)(C)c1cc(/C=C(\C#N)C(N)=S)cc(C(C)(C)C)c1O [Tyrphostin AG 879]
fold increase in IFN-β release [1]: 1.99 fold

CCO.N#CC(=C(/N)Sc1ccccc1N)/C(C#N)=C(\N)Sc1ccccc1N [U0126-EtOH]
fold increase in IFN-β release [1]: 0.70 fold

O=C(c1cncc(Br)c1)N1CCC(N2CCCC2)CC1 [UNC669]
fold increase in IFN-β release [1]: 1.99 fold

NC(=O)c1cccc(-c2cccc(OC(=O)NC3CCCCC3)c2)c1 [URB597]
fold increase in IFN-β release [1]: 2.07 fold

CS(=O)(=O)c1ccc(-c2cnc(N)c(C(=O)Nc3ccccc3)n2)cc1 [VE-821]
fold increase in IFN-β release [1]: 0.45 fold

CNCc1ccc(-c2cc(-c3nc(-c4ccc(S(=O)(=O)C(C)C)cc4)cnc3N)on2)cc1 [VE-822]
fold increase in IFN-β release [1]: 0.86 fold

Cc1cc(Nc2cc(N3CCN(C)CC3)nc(Sc3ccc(NC(=O)C4CC4)cc3)n2)[nH]n1 [VX-680 (Tozasertib, MK-0457), Tozasertib]
fold increase in IFN-β release [1]: 0.91 fold

O=c1ncn2nc(Sc3ccc(F)cc3F)ccc2c1-c1c(Cl)cccc1Cl [VX-745]
fold increase in IFN-β release [1]: 6.18 fold

CCO[C@@H]1OC(=O)C[C@@H]1NC(=O)[C@@H]1CCCN1C(=O)[C@@H](NC(=O)c1ccc(N)c(Cl)c1)C(C)(C)C [VX-765]
fold increase in IFN-β release [1]: 1.67 fold

Cc1ccc(NC(=O)C2(c3ccc4c(c3)OC(F)(F)O4)CC2)nc1-c1cccc(C(=O)O)c1 [VX-809 (Lumacaftor), Lumacaftor]
fold increase in IFN-β release [1]: 1.07 fold

COc1cc2c(Nc3ccc(Br)cc3F)ncnc2cc1OCC1CCN(C)CC1 [Vandetanib (ZD6474), Vandetanib]
fold increase in IFN-β release [1]: 0.25 fold

CCc1c(C(=O)C(N)=O)c2c(OCC(=O)O)cccc2n1Cc1ccccc1 [Varespladib (LY315920), Varespladib]
fold increase in IFN-β release (16 h, 10 µM): 1.18 fold

C[C@]1(c2nc3c(C(N)=O)cccc3[nH]2)CCCN1 [Veliparib (ABT-888), Veliparib]
fold increase in IFN-β release [1]: 0.66 fold

CCCS(=O)(=O)Nc1ccc(F)c(C(=O)c2c[nH]c3ncc(-c4ccc(Cl)cc4)cc23)c1F [Vemurafenib (PLX4032, RG7204), Vemurafenib]
fold increase in IFN-β release [1]: 0.59 fold

N#C[C@@H]1CCCN1C(=O)CNC12CC3CC(CC(O)(C3)C1)C2 [Vildagliptin (LAF-237), Vildagliptin]
fold increase in IFN-β release [1]: 1.04 fold

C[C@@H](c1ncncc1F)[C@](O)(Cn1cncn1)c1ccc(F)cc1F [Voriconazole]
fold increase in IFN-β release [1]: 2.35 fold

c1ccc(NCc2ccc(CNc3ccccn3)cc2)nc1 [WZ811]
fold increase in IFN-β release [1]: 1.67 fold

C=CC(=O)Nc1cccc(Oc2nc(Nc3ccc(N4CCN(C)CC4)cc3OC)ncc2Cl)c1 [WZ4002]
fold increase in IFN-β release [1]: 1.42 fold

CCC(=O)Nc1cccc(Oc2nc(Nc3ccc(N4CCN(C)CC4)cc3OC)ncc2Cl)c1 [WZ4003]
fold increase in IFN-β release [1]: 0.12 fold

Cc1cc(-c2ccc(CC(=O)Nc3ccc(-c4cccnc4)cc3)cc2)ccn1 [Wnt-059 (C59)]
fold increase in IFN-β release [1]: 0.13 fold

Oc1nc(-c2ccc(C(F)(F)F)cc2)nc2c1CSCC2 [XAV-939]
fold increase in IFN-β release [1]: 1.00 fold

CC(C)OC(=O)C1=CN(C(=O)c2ccc(F)c(F)c2)CC(C)(C)c2c1[nH]c1ccccc21 [XL335]
fold increase in IFN-β release [1]: 0.26 fold

CCOc1cc(N2CCC(O)CC2)ccc1Nc1ncc2c(n1)N(C)c1ccccc1C(=O)N2C [XMD8-92]
fold increase in IFN-β release [1]: 2.38 fold

COCCn1c2c([n+](Cc3cnccn3)c1C)C(=O)c1ccccc1C2=O [YM155 (Sepantronium Bromide), Sepantronium Bromide]
fold increase in IFN-β release [1]: 0.30 fold

C[C@H](NC(=O)Cc1cc(F)cc(F)c1)C(=O)N[C@@H]1C(=O)N(C)c2ccccc2-c2ccccc21 [YO-01027]
fold increase in IFN-β release [1]: 1.74 fold

Cc1cc(C)nc(NS(=O)(=O)c2ccc(NC(=S)NC(=O)COc3ccc(Br)cc3Cl)cc2)n1 [ZCL278]
fold increase in IFN-β release [1]: 2.52 fold

COc1cc2ncnc(Nc3ccc(Cl)cc3F)c2cc1OC [ZM 306416]
fold increase in IFN-β release [1]: 0.14 fold

COc1cc2c(Nc3ccc(NC(=O)c4ccccc4)cc3)ncnc2cc1OCCCN1CCOCC1 [ZM 447439]
fold increase in IFN-β release [1]: 0.69 fold

O=c1ncccn1[C@@H]1O[C@H](CO)[C@@H](O)[C@H]1O [Zebularine]
fold increase in IFN-β release [1]: 1.50 fold

COc1nc(C)cnc1NS(=O)(=O)c1cccnc1-c1ccc(-c2nnco2)cc1 [Zibotentan (ZD4054), Zibotentan]
fold increase in IFN-β release [1]: 1.17 fold

O[C@@H](COc1cccc2ncccc12)CN1CCN([C@@H]2c3ccccc3[C@@H]3[C@H](c4ccccc42)C3(F)F)CC1 [Zosuquidar (LY335979) 3HCl, Zosuquidar]
fold increase in IFN-β release [1]: 4.10 fold

(−)-MK 801 Maleate
fold increase in IFN-β release [1]: 4.76 fold
